Molecular target: T1, AURKA (Homo sapiens, UniProt O14965)
T1 construct: endogenous in cells; host or cells: THP-1
T1 sequence (O14965 1-403): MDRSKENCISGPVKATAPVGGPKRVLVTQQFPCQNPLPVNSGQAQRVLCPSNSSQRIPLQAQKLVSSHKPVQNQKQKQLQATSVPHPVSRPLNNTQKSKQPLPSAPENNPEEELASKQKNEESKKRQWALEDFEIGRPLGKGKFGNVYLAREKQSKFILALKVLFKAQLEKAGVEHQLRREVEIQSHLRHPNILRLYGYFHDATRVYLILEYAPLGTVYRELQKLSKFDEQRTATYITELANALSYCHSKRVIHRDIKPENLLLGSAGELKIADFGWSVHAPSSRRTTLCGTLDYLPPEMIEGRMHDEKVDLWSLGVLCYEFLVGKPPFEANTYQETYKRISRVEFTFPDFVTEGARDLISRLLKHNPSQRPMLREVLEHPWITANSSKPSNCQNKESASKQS
Experiment: Expression proteomics in THP-1 cells, AURKA level
Format: cell-based
Conditions: AURKA protein log2 fold change, 24 h, 1.0 μM
Method: THP-1 cells were seeded at a concentration of 3×10^6 cells in T175 flasks with 60 mL growth medium (RPM11640+10% FBS). […] of a 10× compound solution prepared in growth medium (DMSO), IAP PROTAC) was added and the cells were treated for the indicated time points (6 or 24 h) at 37° C., 5% CO2. For harvesting the cells were collected into falcon tubes on ice, centrifuged and washed twice in cold PBS (Life technologies). After the last washing step the supernatant was removed and the pellets were snap-frozen in liquid N2 and stored at −80° C. and lysed in 2% SDS for 3 min at 95° C. in a thermomixer (Thermo Fisher Scientific), followed by digestion of DNA with Benzonase at 37° C. for 1.5 h. Lysate was cleared by centrifugation an protein concentration in supernatant was determined by BCA assay.
Leukemia 25, 89-100 (2011).
Samples were dried in vacuo and resuspended in 0.05% trifluoroacetic acid in water. […]
Reporter ion intensities were read from raw data and multiplied with ion accumulation times (the unit is milliseconds) so as to yield a measure proportional to the number of ions;
Nat Biotech 29, 255-265 (2011). this measure is referred to as ion area Savitski, M. M. et al. Delayed Fragmentation and Optimized Isolation Width Settings for Improvement of Protein Identification and Accuracy of Isobaric Mass Tag Quantification on Orbitrap-Type Mass Spectrometers. […]

log2fc_IAP_24 h_1.0 μM_n1 (replicate n1): −1.81 | log2fc_IAP_24 h_1.0 μM_n2 (replicate n2): −1.42
Compound: CNC(=O)c1ccccc1Nc1nc(Nc2ccc(N3CCN(CCOCCOCCOCCOc4ccc5c(c4)CN(C(=O)[C@@H](NC(=O)[C@H](C)NC)C(C)(C)C)[C@H](C(=O)N[C@@H]4CCCc6ccccc64)C5)CC3)cc2)ncc1Cl [IAP, (S)-7-(2-(2-(2-(2-(4-(4-((5-Chloro-4-((2-(methylcarbamoyl)phenyl)amino)pyrimidin-2-yl)amino)phenyl)piperazin-1-yl)ethoxy)ethoxy)ethoxy)ethoxy)-2-((S)-3,3-dimethyl-2-((S)-2-(methylamino)propanamido)butanoyl)-N-((R)-1,2,3,4-tetrahydronaphthalen-1-yl)-1,2,3,4-tetrahydroisoquinoline-3-carboxamide]

Reference: patent US20190152946A1, “Novel Compounds” (GlaxoSmithKline Intellectual Property Development Limited, priority 2016, published 2019)
